In patent publication US20050186658A1, “Chimeric metabotropic glutamate receptors and uses thereof” (NPS Pharmaceuticals, Inc., priority 2003, published 2005):

Assays:
[1] = molecular target: T1, CaSPhmGluR3(27-33) (Homo sapiens, UniProt Q14832); test: oocyte assay for Gαi-coupled receptors (GIRK1/GIRK4 co-injection, voltage clamp); type: cell-based; conditions: 100 uM L-glutamate; Xenopus oocytes; FIG. 5
T1 construct: CaR signal peptide (first 27 amino acids of CaR) (N); expressed in transfected cells; host or cells: Xenopus laevis oocytes injected with RNA (with GIRK1 and GIRK4 RNA)
Description: (§1) The ability of each Gαi-coupled mGlu or mGluR-CaR chimeric receptors to function was determined in Xenopus oocytes, with co-injection of the G-protein inward rectifying potassium channel subunits, GIRK 1 and GIRK4 (Kubo et al 1993 Nature 364: 802). Individual oocytes were injected with a mixture containing 5 ng receptor, 1.5 ng GIRK1 and 1.5 ng GIRK4. […] Further details can be found in Saugstad, et al., J. Neurosci. 1996 16:5979-5985. Application of glutamate evoked inward potassium currents in oocytes expressing both the chimeric receptors and the potassium channels, but not in oocytes expressing only the receptor or only the channel subunits.

[2] = molecular target: T2, CaSPhmGluR6(27-35) (Homo sapiens, UniProt O15303, Q59P); test: as above; type: cell-based; conditions: 100 uM L-glutamate; Xenopus oocytes; FIG. 7
T2 construct: CaR signal peptide (first 27 amino acids of CaR) (N); expressed in transfected cells; host or cells: Xenopus laevis oocytes injected with RNA
Description: as §1

[3] = molecular target: T3, CaSPhmGluR7(27-45) (Homo sapiens, UniProt Q14831); test: as above; type: cell-based; conditions: 100 uM L-glutamate; Xenopus oocytes; FIG. 4
T3 construct: human CaR signal peptide (first 27 amino acids of CaR), replacing mGluR7 residues 1-44 (N); expressed in transfected cells; host or cells: Xenopus laevis oocytes injected with in vitro transcribed RNA (co-injected with GIRK1 and GIRK4 RNA)
Description: as §1

[4] = molecular target: T4, CaSPhmGluR2(27-19) (Homo sapiens, UniProt Q14416); test: as above; type: cell-based; conditions: 100 uM L-glutamate; Xenopus oocytes; FIG. 6
T4 construct: CaR signal peptide (first 27 amino acids of CaR) (N); expressed in transfected cells; host or cells: Xenopus laevis oocytes injected with RNA (with GIRK1 and GIRK4 RNA)

[5] = molecular target: T5, CaSPhmGluR5(27-22) (Homo sapiens, UniProt P41594); test: oocyte assay for PLC-coupled receptors (voltage clamp, Cl- current); type: cell-based; conditions: 100 uM L-glutamate; Xenopus oocytes; FIG. 8
T5 construct: CaR signal peptide (first 27 amino acids of CaR) (N); expressed in transfected cells; host or cells: Xenopus laevis oocytes injected with in vitro transcribed RNA

[6] = molecular target: T6, human CaR (Homo sapiens, UniProt P41180, R990G); test: PLC-coupled oocyte assay; type: cell-based; conditions: Xenopus oocytes; FIG. 10B
T6 construct: expressed in transfected cells; host or cells: Xenopus laevis oocytes injected with human CaR RNA (plasmid phPCaR4.0)
T6 sequence (P41180 20-1078 R990G): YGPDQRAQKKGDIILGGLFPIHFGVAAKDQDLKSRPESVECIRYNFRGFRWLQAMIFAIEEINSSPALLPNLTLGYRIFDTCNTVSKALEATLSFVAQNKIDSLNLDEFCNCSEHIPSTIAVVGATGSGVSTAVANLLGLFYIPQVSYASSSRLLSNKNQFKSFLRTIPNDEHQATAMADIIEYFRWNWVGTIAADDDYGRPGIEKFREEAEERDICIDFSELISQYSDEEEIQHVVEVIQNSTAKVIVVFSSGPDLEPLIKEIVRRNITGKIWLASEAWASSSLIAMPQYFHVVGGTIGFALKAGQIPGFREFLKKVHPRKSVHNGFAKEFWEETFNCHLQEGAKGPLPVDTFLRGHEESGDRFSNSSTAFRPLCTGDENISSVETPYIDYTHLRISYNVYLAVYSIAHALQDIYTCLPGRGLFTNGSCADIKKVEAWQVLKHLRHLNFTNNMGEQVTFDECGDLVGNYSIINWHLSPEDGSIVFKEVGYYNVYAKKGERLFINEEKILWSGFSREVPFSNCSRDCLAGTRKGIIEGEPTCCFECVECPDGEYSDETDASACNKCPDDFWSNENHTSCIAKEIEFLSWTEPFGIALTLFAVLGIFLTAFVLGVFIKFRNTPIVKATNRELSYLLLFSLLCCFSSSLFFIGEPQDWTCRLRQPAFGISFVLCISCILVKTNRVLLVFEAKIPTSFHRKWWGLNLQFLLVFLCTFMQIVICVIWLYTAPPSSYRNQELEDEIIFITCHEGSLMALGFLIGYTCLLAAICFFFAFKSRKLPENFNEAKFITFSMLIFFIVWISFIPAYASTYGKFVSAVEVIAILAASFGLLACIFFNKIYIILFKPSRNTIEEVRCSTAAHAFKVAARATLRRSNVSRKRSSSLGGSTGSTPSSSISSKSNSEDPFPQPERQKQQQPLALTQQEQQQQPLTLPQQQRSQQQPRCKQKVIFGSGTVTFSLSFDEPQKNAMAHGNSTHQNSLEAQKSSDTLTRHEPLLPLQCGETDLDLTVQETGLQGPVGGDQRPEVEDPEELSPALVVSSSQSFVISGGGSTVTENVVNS

[7] = molecular target: pmGluR1/CaR chimera (Rattus norvegicus, UniProt P23385); conditions: Xenopus oocytes; compared with rat mGluR1; FIG. 9
[8] = molecular target: rat mGluR1 (Rattus norvegicus, UniProt P23385); conditions: Xenopus oocytes; FIG. 9 and FIG. 10A
Sequence of rat mGluR1 (P23385 19-1199): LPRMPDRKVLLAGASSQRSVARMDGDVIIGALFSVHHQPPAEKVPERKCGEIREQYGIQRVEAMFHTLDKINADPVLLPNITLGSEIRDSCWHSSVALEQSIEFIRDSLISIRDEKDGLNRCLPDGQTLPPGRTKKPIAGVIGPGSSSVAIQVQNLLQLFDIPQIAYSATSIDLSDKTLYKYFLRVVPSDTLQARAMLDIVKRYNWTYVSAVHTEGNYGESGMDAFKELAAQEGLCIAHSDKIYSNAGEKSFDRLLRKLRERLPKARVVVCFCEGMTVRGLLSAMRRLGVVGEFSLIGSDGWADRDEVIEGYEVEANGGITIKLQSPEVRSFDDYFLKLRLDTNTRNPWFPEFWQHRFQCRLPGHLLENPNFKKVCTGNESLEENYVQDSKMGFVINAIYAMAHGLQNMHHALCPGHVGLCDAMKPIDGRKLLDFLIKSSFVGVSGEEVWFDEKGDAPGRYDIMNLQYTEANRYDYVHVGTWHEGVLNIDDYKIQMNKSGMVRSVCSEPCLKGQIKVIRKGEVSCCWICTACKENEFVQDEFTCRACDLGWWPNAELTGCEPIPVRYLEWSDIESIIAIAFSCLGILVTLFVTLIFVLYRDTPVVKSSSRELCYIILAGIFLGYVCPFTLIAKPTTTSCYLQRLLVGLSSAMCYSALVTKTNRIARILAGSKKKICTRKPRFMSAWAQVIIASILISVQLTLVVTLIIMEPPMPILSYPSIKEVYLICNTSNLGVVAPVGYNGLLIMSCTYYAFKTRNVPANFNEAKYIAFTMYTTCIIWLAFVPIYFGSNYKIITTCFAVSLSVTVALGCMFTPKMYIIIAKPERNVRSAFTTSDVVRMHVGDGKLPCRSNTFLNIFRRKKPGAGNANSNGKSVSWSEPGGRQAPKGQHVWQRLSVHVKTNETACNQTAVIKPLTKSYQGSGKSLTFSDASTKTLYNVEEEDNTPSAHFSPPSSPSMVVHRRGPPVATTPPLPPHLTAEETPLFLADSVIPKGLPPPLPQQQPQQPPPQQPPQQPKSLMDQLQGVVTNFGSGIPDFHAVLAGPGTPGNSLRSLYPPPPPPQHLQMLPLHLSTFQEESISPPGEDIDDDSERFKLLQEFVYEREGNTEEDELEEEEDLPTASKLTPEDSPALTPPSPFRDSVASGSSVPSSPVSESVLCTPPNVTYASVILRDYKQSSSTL

T2 sequence (O15303 with tags, fused parts or gaps Q59P): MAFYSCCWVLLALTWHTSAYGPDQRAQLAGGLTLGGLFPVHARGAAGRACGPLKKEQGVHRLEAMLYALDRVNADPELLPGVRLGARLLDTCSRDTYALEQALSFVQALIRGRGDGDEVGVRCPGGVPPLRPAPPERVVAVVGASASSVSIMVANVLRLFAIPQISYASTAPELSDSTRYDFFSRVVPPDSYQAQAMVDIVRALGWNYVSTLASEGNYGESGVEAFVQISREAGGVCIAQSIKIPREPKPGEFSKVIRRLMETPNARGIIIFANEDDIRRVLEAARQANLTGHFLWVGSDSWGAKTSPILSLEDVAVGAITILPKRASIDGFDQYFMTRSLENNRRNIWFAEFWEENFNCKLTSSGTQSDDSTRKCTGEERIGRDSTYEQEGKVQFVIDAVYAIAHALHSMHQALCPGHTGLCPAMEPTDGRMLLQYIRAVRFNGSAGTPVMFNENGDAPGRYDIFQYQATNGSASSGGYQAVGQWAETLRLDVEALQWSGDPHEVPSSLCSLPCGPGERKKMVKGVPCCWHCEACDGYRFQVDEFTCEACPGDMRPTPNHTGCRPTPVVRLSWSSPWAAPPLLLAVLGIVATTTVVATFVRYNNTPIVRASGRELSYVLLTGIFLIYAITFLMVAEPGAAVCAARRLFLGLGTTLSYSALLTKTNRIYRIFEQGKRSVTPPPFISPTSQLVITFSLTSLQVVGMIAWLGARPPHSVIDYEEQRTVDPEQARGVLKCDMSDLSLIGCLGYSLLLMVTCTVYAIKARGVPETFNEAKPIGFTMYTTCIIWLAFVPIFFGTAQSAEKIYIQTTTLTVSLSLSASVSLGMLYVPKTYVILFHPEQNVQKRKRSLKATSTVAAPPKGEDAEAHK
T1 sequence (Q14832 with tags, fused parts or gaps): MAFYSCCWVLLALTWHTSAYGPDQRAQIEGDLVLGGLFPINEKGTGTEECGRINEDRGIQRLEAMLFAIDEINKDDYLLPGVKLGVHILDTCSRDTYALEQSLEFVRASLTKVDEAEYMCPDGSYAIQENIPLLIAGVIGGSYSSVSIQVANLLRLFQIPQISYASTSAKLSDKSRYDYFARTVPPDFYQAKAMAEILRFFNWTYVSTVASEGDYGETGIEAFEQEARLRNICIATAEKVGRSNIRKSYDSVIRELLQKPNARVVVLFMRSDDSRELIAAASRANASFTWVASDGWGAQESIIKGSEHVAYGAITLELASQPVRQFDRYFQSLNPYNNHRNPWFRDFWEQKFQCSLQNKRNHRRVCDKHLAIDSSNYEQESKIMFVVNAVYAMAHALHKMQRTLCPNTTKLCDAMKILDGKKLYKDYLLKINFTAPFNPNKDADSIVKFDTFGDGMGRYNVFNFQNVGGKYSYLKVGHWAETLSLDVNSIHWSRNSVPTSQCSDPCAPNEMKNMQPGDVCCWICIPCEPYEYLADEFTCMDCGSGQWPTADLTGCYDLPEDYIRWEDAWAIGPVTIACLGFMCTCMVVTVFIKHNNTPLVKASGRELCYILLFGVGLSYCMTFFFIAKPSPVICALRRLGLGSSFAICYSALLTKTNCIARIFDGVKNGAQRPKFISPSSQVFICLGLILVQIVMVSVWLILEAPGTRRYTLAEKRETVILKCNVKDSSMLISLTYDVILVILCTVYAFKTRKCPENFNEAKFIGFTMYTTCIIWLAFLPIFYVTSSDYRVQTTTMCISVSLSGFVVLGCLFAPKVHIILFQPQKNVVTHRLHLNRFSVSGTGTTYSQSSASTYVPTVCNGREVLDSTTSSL
T4 sequence (Q14416 with tags, fused parts or gaps): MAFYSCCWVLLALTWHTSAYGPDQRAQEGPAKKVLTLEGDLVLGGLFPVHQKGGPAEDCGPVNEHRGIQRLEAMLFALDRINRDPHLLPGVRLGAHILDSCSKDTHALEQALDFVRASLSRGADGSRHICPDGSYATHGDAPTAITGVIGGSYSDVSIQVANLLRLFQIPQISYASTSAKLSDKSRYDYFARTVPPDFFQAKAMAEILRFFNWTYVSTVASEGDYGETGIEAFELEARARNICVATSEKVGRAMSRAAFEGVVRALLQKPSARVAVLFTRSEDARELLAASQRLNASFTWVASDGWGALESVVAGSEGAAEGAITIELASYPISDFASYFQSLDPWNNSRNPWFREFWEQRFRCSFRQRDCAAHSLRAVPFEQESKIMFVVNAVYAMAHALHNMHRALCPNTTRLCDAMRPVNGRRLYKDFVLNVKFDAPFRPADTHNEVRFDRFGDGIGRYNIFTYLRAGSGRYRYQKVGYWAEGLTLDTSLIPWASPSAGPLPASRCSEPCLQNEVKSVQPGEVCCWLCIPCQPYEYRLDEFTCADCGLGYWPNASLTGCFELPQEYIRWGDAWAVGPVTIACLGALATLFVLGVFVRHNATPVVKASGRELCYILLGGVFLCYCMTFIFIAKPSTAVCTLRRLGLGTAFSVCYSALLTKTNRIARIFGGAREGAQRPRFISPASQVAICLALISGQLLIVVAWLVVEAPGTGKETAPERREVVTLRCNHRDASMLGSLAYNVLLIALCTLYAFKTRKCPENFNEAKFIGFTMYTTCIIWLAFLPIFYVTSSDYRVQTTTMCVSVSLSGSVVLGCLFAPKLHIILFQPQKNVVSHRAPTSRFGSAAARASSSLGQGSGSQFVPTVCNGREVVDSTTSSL
T3 sequence (Q14831 with tags, fused parts or gaps): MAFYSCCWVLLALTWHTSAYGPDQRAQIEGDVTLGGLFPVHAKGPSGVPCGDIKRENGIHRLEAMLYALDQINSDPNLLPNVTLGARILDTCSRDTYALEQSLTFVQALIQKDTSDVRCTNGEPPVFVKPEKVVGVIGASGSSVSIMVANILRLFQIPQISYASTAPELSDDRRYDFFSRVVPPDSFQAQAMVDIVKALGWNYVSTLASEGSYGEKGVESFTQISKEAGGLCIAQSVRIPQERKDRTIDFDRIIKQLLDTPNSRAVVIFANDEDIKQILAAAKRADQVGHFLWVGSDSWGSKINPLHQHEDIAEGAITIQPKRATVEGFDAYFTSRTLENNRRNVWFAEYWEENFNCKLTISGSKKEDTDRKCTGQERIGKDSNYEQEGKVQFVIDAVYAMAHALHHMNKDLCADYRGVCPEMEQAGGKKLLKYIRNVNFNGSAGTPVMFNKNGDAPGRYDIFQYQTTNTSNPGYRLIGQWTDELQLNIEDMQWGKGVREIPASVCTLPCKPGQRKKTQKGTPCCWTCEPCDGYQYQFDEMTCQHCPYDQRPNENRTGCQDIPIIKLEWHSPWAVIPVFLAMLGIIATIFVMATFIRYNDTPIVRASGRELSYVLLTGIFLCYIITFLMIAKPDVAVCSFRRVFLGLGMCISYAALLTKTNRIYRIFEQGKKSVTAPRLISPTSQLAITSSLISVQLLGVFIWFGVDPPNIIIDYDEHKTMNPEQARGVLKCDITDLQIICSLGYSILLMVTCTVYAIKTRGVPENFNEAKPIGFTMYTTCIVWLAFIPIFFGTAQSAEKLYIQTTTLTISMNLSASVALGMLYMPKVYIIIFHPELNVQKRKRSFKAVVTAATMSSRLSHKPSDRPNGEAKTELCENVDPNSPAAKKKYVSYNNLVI

Row | Compound | activation of the chimeric receptor [1] | activation of the chimeric receptor [2] | activation of the chimeric receptor [3] | activation of the receptor [4] | activation of the chimeric receptor [5] | Cl- current in oocytes injected with human CaR RNA [6] | receptor response (Cl- currents on release of intracellular Ca2+) [7] | receptor response (Cl- currents on release of intracellular Ca2+) [8]
1 | N[C@@H](CCC(=O)O)C(=O)O [L-glutamate] | activation of the chimeric receptor was seen | Activation of the chimeric receptor | robust activation | Activation of the receptor | Activation of the chimeric receptor | elicits oscillatory increases in Cl— current |  | 
2 | N[C@@H](Cn1oc(=O)[nH]c1=O)C(=O)O [quisqualate] |  |  |  |  |  |  | respond comparably | respond comparably
